These results are taken from patent US20240002394A1, “DEUTERIUM-MODIFIED THIENOPYRIDONE COMPOUND” (Chia Tai Tianqing Pharmaceutical Group Co., Ltd., priority 2020, published 2024).

The target in one series is HPK1 (Homo sapiens (Human), UniProt Q92918). The series is described as follows: Assay for in vitro inhibitory activity against HPK1 kinase. Type of series: biochemical. As to conditions: ATP 0.1 mM; HTRF, STK Substrate 1-biotin; read-out: In vitro inhibitory activity against enzyme HPK1 IC50. On the procedure: The kinase buffer (Enzymatic buffer 5×) was diluted to 1×, and 10 mM MgCl2, 1 mM DTT, and 0.005% Tween 20 were added. The 100 ng/μL HPK1 (Life technology) stock solution was diluted with the kinase buffer to obtain a 1.67×, 1.67 ng/μL working solution (final concentration: 1 ng/μL), and the working solution was seeded in a 384-well plate at 6 μL/well. Different compounds dissolved in DMSO were added to the wells using a nanoliter pipettor to final concentrations of 1000 nM to 0.244 nM (4-fold serial dilution, 7 concentrations in total), and blank control wells (without enzyme) and negative control wells (with enzyme, plus vehicle DMSO) were set; the wells were set in duplicate. After the enzyme and compounds were incubated at room temperature for 1 h, a 5×, 0.5 mM ATP dilution (final concentration: 0.1 mM) in the kinase buffer was mixed with a 5×, 2.5 μM substrate (Cisbio, STK Substrate 1-biotin; final concentration: 500 nM) in equal volume, and the mixture was added to each well at 4 μL/well. The plate was sealed with a film and then incubated at room temperature for 2 h. An assay antibody solution was prepared by mixing the antibody STK Antibody-cryptate (Cisbio, 5 μL/test) and a 4×, 500 nM Streptavidin-XL665 (Cisbio; final concentration: 125 nM) in equal volume and was added to each well at 10 μL/well, and the plate was incubated at room temperature for 1 h. The signal values ([…]) were measured using a PE Envision multi-functional microplate reader, and IC50 was calculated by four-parameter fitting.
A general note: In TR-FRET formats the signal depends on donor and acceptor labels being close together.

The nature of series [1]: In vitro liver microsomal stability (MLM). The format is in vitro ADME, mouse. How it is done:
(§1) Preparation of liver microsome incubated samples: PBS buffer (pH 7.4), liver microsome solutions (0.5 mg/mL; HLM and MLM, respectively), the test compounds and NADPH+MgCl2 solution were mixed and incubated at 37° C. at 300 rpm for 1 h. Preparation of zero-hour samples: PBS buffer (pH 7.4), liver microsome solutions (0.5 mg/mL; HLM and MLM, respectively) and the test compounds were mixed. An acetonitrile solution containing internal standard was added to the samples, and supernatants were prepared by protein precipitation, diluted and then analyzed by LC/MS/MS.
On the technique in general: Liver microsomes are vesicles of endoplasmic reticulum, rich in cytochrome P450 enzymes.

A short description of series [2]: In vitro liver microsomal stability (HLM). The format is in vitro ADME, human. How it is done: as §1
The subject of series [3] is Jurkat cell p-SLP76 phosphorylation. The series is described as follows: Assay for Jurkat cell p-SLP76 phosphorylation inhibitory activity. Type of series: cell-based. As to conditions: Homo sapiens, 0.5 h; Jurkat cells, CD3CD28 stimulation 30 min; read-out: Jurkat cell p-SLP76 phosphorylation inhibition IC50. On the procedure:
The Jurkat cells in a good growth state were added to a centrifuge tube, centrifuged, and resuspended. The cell density was adjusted to 6.25×10^6 cells/mL, and the cells were seeded in a 384-well small-volume white plate at 8 μL/well. Compounds were added in duplicate using a nanoliter pipettor to final concentrations of 2500 nM to 10.29 nM and a control was set. After 1 h of cell culture, the stimulator CD3CD28 (4 μL; manufacturer: Stemcell) was added and the cells were incubated at 37° C. for 30 min. 3 μL of lysis buffer (manufacturer: BioAuxilium) was added to each well, and the plate was shaken at room temperature for 30 min. After the lysate was well mixed, 5 μL of pre-mixed antibody (manufacturer: BioAuxilium) in assay buffer was added and the plate was incubated overnight at room temperature. The signal values were measured on a PerkinElmer Envision multi-functional microplate reader (excitation: 320 nm, emission: 615 nm/665 nm), and IC50 was calculated by four-parameter fitting.

Where [4] appears, read: MLM 0.5 mg/mL, 37° C., NADPH, 60 min.
Where [5] appears, read: HLM 0.5 mg/mL, 37° C., NADPH, 60 min.

Chain of HPK1 (Q92918 whole entry): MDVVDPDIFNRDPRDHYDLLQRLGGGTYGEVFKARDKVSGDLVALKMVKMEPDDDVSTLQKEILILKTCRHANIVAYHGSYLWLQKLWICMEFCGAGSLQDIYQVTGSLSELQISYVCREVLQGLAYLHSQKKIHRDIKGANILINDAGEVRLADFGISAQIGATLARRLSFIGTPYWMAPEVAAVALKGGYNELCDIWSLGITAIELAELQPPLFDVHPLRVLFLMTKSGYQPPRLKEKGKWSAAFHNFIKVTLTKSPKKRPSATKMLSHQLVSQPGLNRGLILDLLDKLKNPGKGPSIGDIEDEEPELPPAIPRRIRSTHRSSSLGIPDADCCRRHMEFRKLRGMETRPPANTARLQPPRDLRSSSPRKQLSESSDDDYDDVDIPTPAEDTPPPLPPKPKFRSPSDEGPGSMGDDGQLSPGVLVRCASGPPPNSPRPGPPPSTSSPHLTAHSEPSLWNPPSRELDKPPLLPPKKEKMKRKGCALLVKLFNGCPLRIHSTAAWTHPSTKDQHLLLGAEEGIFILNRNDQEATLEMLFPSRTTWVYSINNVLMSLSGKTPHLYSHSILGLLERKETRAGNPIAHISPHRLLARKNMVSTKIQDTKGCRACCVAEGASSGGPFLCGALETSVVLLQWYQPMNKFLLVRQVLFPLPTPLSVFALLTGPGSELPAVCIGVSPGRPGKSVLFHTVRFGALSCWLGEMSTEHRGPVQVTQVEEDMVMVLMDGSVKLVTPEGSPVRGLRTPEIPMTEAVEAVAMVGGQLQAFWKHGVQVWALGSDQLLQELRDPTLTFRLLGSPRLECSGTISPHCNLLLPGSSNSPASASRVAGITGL

For the compound `[2H]C1([2H])CN(c2ccc3[nH]c(-c4c(N)c5ccsc5[nH]c4=O)nc3c2)CC([2H])([2H])N1C` [Example 3, 4-amino-5-(5-(4-methylpiperazin-1-yl-3,3,5,5-d4)-1H-benzo[d]imidazol-2-yl)thieno[2,3-b]pyridin-6(7H)-one], the IC50 on HPK1 came to 7.5 nM. Further, in series [1] (setting [4]), the “MLM (0.5 mg/mL) Remaining percentage (T = 60 min)” value is reported as 45.47%. For the same compound, the “HLM (0.5 mg/mL) Remaining percentage (T = 60 min)” value in series [2] (setting [5]) is recorded as 90.85%.

Take `[2H]C1([2H])CN(C)CC([2H])([2H])N1c1ccc2[nH]c(-c3c(N)c4ccsc4[nH]c3=O)nc2c1` [Example 4, 4-amino-5-(5-(4-methylpiperazin-1-yl-2,2,6,6-d4)-1H-benzo[d]imidazol-2-yl)thieno[2,3-b]pyridin-6(7H)-one]: the results for the IC50 (on HPK1; in series [3]) were 9.2 nM and 83 nM, respectively. Moreover, the “MLM (0.5 mg/mL) Remaining percentage (T = 60 min)” value in series [1] (mouse, microsomes, 1 h, pH 7.4) was found to be 42.58%. The “HLM (0.5 mg/mL) Remaining percentage (T = 60 min)” value in series [2] (human, microsomes, 1 h, pH 7.4) was found to be 88.50%.

For the compound `[2H]c1cc2c(N)c(-c3nc4c([2H])c(N5CCN(C)CC5)c([2H])cc4[nH]3)c(=O)[nH]c2s1` [Example 5, 4-amino-5-(5-(4-methylpiperazin-1-yl)-1H-benzo[d]imidazol-2-yl-4,6-d2)thieno[2,3-b]pyridin-6(7H)-one-2-d], the IC50 at HPK1 came to 8.8 nM; in series [3] it was 53 nM.

Consider `[2H]C1([2H])N(C)C([2H])([2H])C([2H])([2H])N(c2ccc3[nH]c(-c4c(N)c5ccsc5[nH]c4=O)nc3c2)C1([2H])[2H]` [Example 2, 4-amino-5-(5-(4-methylpiperazin-1-yl-2,2,3,3,5,5,6,6-d8)-1H-benzo[d]imidazol-2-yl)thieno [2,3-b]pyridin-6(7H)-one], for which the IC50 at HPK1 was found to be 9.7 nM. The “MLM (0.5 mg/mL) Remaining percentage (T = 60 min)” value in series [1] (setting [4]) was determined as 45.97%. Besides, in series [2] (setting [5]), the “HLM (0.5 mg/mL) Remaining percentage (T = 60 min)” value is listed as 89.66%.

The IC50 is the concentration needed to halve the response being measured.
